Assay results as given in publication PMC6100082, “Pyridine-Ureas as Potential Anticancer Agents: Synthesis and In Vitro Biological Evaluation” (Molecules : A Journal of Synthetic Chemistry and Natural …, 2018).
Like-named read-outs stand apart in the source and are kept apart here.

Columns and labels:
Format in all cases: cell-based, human
SK-MEL-5 = test: NCI one-dose SRB assay (Melanoma); settings: for inhibition at 10 µM: Homo sapiens, SK-MEL-5, 10 μM, read-out: Percentage growth inhibition (GI%); for Growth Percent: SK-MEL-5, 1.00E-5 Molar
Method: (§1) The structures of all the newly prepared pyridine-ureas 8a–n were submitted to the National Cancer Institute (NCI) Developmental Therapeutic Program. Eight compounds 8b, 8d, 8e, 8i, 8j and 8l–n were selected to be examined for their in vitro growth inhibitory activity. The anticancer assays were carried out according to the protocol of the Drug Evaluation Branch, NCI, Bethesda. The selected pyridine-ureas were tested at one dose primary anticancer assay against a panel of approximately 58 cancer lines (concentration 10^−5 M). The tested human cancer cell lines emerged from nine different cancer subtypes: leukemia, colon, melanoma, ovarian, lung, CNS, renal, breast and prostate cancers. The sulforhodamine B (SRB) protein assay was adopted to estimate the cell viability and growth. The results were reported as mean-graph of the percentage growth of the treated cells, and presented as percentage growth inhibition (GI%) caused by the test compounds (Table 2).
(§2) The anticancer assays were performed in accordance with the protocol of the Drug Evaluation Branch, NCI, Bethesda. A 48 h drug exposure protocol was used and sulforhodamine B (SRB) protein assay was applied to estimate the cell viability and growth, as reported earlier.

M14 = test: NCI one-dose SRB assay (Melanoma); settings: for inhibition at 10 µM: Homo sapiens, M14, 10 μM, read-out: Percentage growth inhibition (GI%); for Growth Percent: M14, 1.00E-5 Molar
Method: as §1, §2

LOX IMVI = test: NCI one-dose SRB assay (Melanoma); settings: for Growth Percent: 1.00E-5 Molar; for inhibition at 10 µM: Homo sapiens, read-out: Percentage growth inhibition (GI%)
Method: as §1, §2

SK-MEL-28 = test: NCI one-dose SRB assay (Melanoma); settings: for inhibition at 10 µM: Homo sapiens, SK-MEL-28, 10 μM, read-out: Percentage growth inhibition (GI%); for Growth Percent: SK-MEL-28, 1.00E-5 Molar
Method: as §1, §2

MDA-MB-435 = test: NCI one-dose SRB assay (Melanoma); settings: for inhibition at 10 µM: Homo sapiens, MDA-MB-435, 10 μM, read-out: Percentage growth inhibition (GI%); for Growth Percent: MDA-MB-435, 1.00E-5 Molar
Method: as §1, §2

MALME-3M = test: NCI one-dose SRB assay (Melanoma); settings: for Growth Percent: 1.00E-5 Molar; for inhibition at 10 µM: Homo sapiens, read-out: Percentage growth inhibition (GI%)
Method: as §1, §2

SK-MEL-2 = test: NCI one-dose SRB assay (Melanoma); settings: for inhibition at 10 µM: Homo sapiens, SK-MEL-2, 10 μM, read-out: Percentage growth inhibition (GI%); for Growth Percent: SK-MEL-2, 1.00E-5 Molar
Method: as §1, §2

UACC-62 = test: NCI one-dose SRB assay (Melanoma); settings: for inhibition at 10 µM: Homo sapiens, UACC-62, 10 μM, read-out: Percentage growth inhibition (GI%); for Growth Percent: UACC-62, 1.00E-5 Molar
Method: as §1, §2

[1] = test system: breast cancer MCF-7 cell line; test: In vitro anti-proliferative activity, MTT assay; settings: Homo sapiens, MCF-7, MTT
Method: The in vitro anti-proliferative activity of the newly prepared pyridine-ureas 8a–n was examined against breast cancer MCF-7 cell line. The assay was carried out, as triplicates, utilizing the 3-(4,5-dimethylthiazol-2-yl)-2,5-diphenyltetrazolium bromide (MTT) colorimetric assay as described by T. Mosmann. Doxorubicin and Sorafenib were included in this assay as a reference drug.
MCF-7 (human breast cancer cell line) and WI-38 (human lung fibroblast cell line), were obtained from American Type Culture Collection (Manassas, VA, USA). The cells were propagated in DMEM and supplemented with 10% heat-inactivated FBS (Hyclone), 10 μg/mL of insulin (Manufacturer, Sigma, St. Louis, MO, USA), and 1% penicillin-streptomycin. MTT assay was utilized to examine the in vitro anti-proliferative activity of the newly prepared ureas following the reported procedures. […] The data presented are the mean of at least three separate experiments.

SR = test: NCI one-dose SRB assay (Leukemia); settings: for Growth Percent: 1.00E-5 Molar; for inhibition at 10 µM: Homo sapiens, read-out: Percentage growth inhibition (GI%)
Method: as §1, §2

CCRF-CEM = test: NCI one-dose SRB assay (Leukemia); settings: for Growth Percent: 1.00E-5 Molar; for inhibition at 10 µM: Homo sapiens, read-out: Percentage growth inhibition (GI%)
Method: as §1, §2

RPMI-8226 = test: NCI one-dose SRB assay (Leukemia); settings: for inhibition at 10 µM: Homo sapiens, RPMI-8226, 10 μM, read-out: Percentage growth inhibition (GI%); for Growth Percent: RPMI-8226, 1.00E-5 Molar
Method: as §1, §2

K-562 = test: NCI one-dose SRB assay (Leukemia); settings: for inhibition at 10 µM: Homo sapiens, K562, K-562, 10 μM, read-out: Percentage growth inhibition (GI%); for Growth Percent: K-562, 1.00E-5 Molar
Method: as §1, §2

MOLT-4 = test: NCI one-dose SRB assay (Leukemia); settings: for inhibition at 10 µM: Homo sapiens, MOLT-4, 10 μM, read-out: Percentage growth inhibition (GI%); for Growth Percent: MOLT-4, 1.00E-5 Molar
Method: as §1, §2

HL-60(TB) = test: NCI one-dose SRB assay (Leukemia); settings: for Growth Percent: 1.00E-5 Molar; for inhibition at 10 µM: Homo sapiens, read-out: Percentage growth inhibition (GI%)
Method: as §1, §2

HOP-62 = test: NCI one-dose SRB assay (Non-Small Cell Lung Cancer); settings: for Growth Percent: HOP-62, 1.00E-5 Molar; for inhibition at 10 µM: Homo sapiens, HOP-62, 10 μM, read-out: Percentage growth inhibition (GI%)
Method: as §1, §2

NCI-H460 = test: as above; settings: for inhibition at 10 µM: Homo sapiens, NCI-H460, 10 μM, read-out: Percentage growth inhibition (GI%); for Growth Percent: NCI-H460, 1.00E-5 Molar
Method: as §1, §2

EKVX = test: as above; settings: for Growth Percent: 1.00E-5 Molar; for inhibition at 10 µM: Homo sapiens, read-out: Percentage growth inhibition (GI%)
Method: as §1, §2

NCI-H23 = test: as above; settings: for inhibition at 10 µM: Homo sapiens, NCI-H23, 10 μM, read-out: Percentage growth inhibition (GI%); for Growth Percent: NCI-H23, 1.00E-5 Molar
Method: as §1, §2

A549/ATCC = test: as above; settings: for Growth Percent: 1.00E-5 Molar; for inhibition at 10 µM: Homo sapiens, read-out: Percentage growth inhibition (GI%)
Method: as §1, §2

NCI-H322M = test: as above; settings: for Growth Percent: 1.00E-5 Molar; for inhibition at 10 µM: Homo sapiens, read-out: Percentage growth inhibition (GI%)
Method: as §1, §2

NCI-H226 = test: as above; settings: for inhibition at 10 µM: Homo sapiens, NCI-H226, 10 μM, read-out: Percentage growth inhibition (GI%); for Growth Percent: NCI-H226, 1.00E-5 Molar
Method: as §1, §2

HOP-92 = test: as above; settings: for Growth Percent: HOP-92, 1.00E-5 Molar; for inhibition at 10 µM: Homo sapiens, HOP-92, 10 μM, read-out: Percentage growth inhibition (GI%)
Method: as §1, §2

NCI-H522 = test: as above; settings: for inhibition at 10 µM: Homo sapiens, NCI-H522, 10 μM, read-out: Percentage growth inhibition (GI%); for Growth Percent: NCI-H522, 1.00E-5 Molar
Method: as §1, §2

[2] = MCF7, 48 h, 48 h of incubation, read-out: IC50 48 h
[3] = MCF7, 72 h, 72 h of incubation, read-out: IC50 72 h

COc1ccc(-c2ccc(NC(=O)Nc3ccc(Cl)c(C(F)(F)F)c3)c(C)n2)cc1 [Compound 8e, 1-(4-Chloro-3-(trifluoromethyl)phenyl)-3-(6-(4-methoxyphenyl)-2-methylpyridin-3-yl)urea]
inhibition at 10 µM (SK-MEL-5): 45%
Growth Percent (SK-MEL-5): 55.66%
inhibition at 10 µM (M14): 69%
Growth Percent (M14): 31.87%
Growth Percent (LOX IMVI): 64.51%
inhibition at 10 µM (LOX IMVI): 36%
inhibition at 10 µM (SK-MEL-28): 29%
Growth Percent (SK-MEL-28): 71.43%
inhibition at 10 µM (MDA-MB-435): 29%
Growth Percent (MDA-MB-435): 71.95%
Growth Percent (MALME-3M): 82.56%
inhibition at 10 µM (MALME-3M): 18%
inhibition at 10 µM (SK-MEL-2): 38%
Growth Percent (SK-MEL-2): 62.13%
inhibition at 10 µM (UACC-62): 35%
Growth Percent (UACC-62): 65.57%
IC50 [1, 2]: 220 ± 20 nM
IC50 [1, 3]: 110 ± 100 nM
Growth Percent (SR): 35.68%
inhibition at 10 µM (SR): 65%
Growth Percent (CCRF-CEM): 29.88%
inhibition at 10 µM (CCRF-CEM): 71%
inhibition at 10 µM (RPMI-8226): 91%
Growth Percent (RPMI-8226): 9.87%
inhibition at 10 µM (K-562): 84%
Growth Percent (K-562): 16.70%
inhibition at 10 µM (MOLT-4): 76%
Growth Percent (MOLT-4): 24.60%
Growth Percent (HL-60(TB)): 32.27%
inhibition at 10 µM (HL-60(TB)): 68%
Growth Percent (HOP-62): 62.10%
inhibition at 10 µM (HOP-62): 38%
inhibition at 10 µM (NCI-H460): 70%
Growth Percent (NCI-H460): 30.90%
Growth Percent (EKVX): 49.19%
inhibition at 10 µM (EKVX): 51%
inhibition at 10 µM (NCI-H23): 70%
Growth Percent (NCI-H23): 30.94%
Growth Percent (A549/ATCC): 38.71%
inhibition at 10 µM (A549/ATCC): 62%
Growth Percent (NCI-H322M): 71.44%
inhibition at 10 µM (NCI-H322M): 29%
inhibition at 10 µM (NCI-H226): 35%
Growth Percent (NCI-H226): 65.24%
Growth Percent (HOP-92): 27.03%
inhibition at 10 µM (HOP-92): 73%
inhibition at 10 µM (NCI-H522): 76%
Growth Percent (NCI-H522): 24.81%

COc1ccc(NC(=O)Nc2ccc(-c3ccc(OC)c(OC)c3)nc2C)cc1 [Compound 8n, 1-(6-(3,4-Dimethoxyphenyl)-2-methylpyridin-3-yl)-3-(4-methoxyphenyl) Urea]
inhibition at 10 µM (SK-MEL-5): 78%
Growth Percent (SK-MEL-5): 22.98%
inhibition at 10 µM (M14): 28%
Growth Percent (M14): 72.14%
Growth Percent (LOX IMVI): 88.83%
inhibition at 10 µM (LOX IMVI): 12%
inhibition at 10 µM (SK-MEL-28): 14%
Growth Percent (SK-MEL-28): 86.76%
inhibition at 10 µM (MDA-MB-435): 35%
Growth Percent (MDA-MB-435): 65.17%
Growth Percent (MALME-3M): 44.12%
inhibition at 10 µM (MALME-3M): 56%
inhibition at 10 µM (SK-MEL-2): 21%
Growth Percent (SK-MEL-2): 79.55%
inhibition at 10 µM (UACC-62): 41%
Growth Percent (UACC-62): 59.87%
IC50 [1, 2]: 1880 ± 120 nM
IC50 [1, 3]: 800 ± 70 nM
Growth Percent (SR): 57.29%
inhibition at 10 µM (SR): 43%
Growth Percent (CCRF-CEM): 97.16%
inhibition at 10 µM (CCRF-CEM): < 10%
inhibition at 10 µM (RPMI-8226): 17%
Growth Percent (RPMI-8226): 83.77%
inhibition at 10 µM (K-562): 27%
Growth Percent (K-562): 73.25%
inhibition at 10 µM (MOLT-4): 15%
Growth Percent (MOLT-4): 85.62%
Growth Percent (HL-60(TB)): 85.74%
inhibition at 10 µM (HL-60(TB)): 15%
Growth Percent (HOP-62): 56.53%
inhibition at 10 µM (HOP-62): 44%
inhibition at 10 µM (NCI-H460): 83%
Growth Percent (NCI-H460): 17.58%
Growth Percent (EKVX): 91.15%
inhibition at 10 µM (EKVX): < 10%
inhibition at 10 µM (NCI-H23): 33%
Growth Percent (NCI-H23): 67.43%
Growth Percent (A549/ATCC): 57.02%
inhibition at 10 µM (A549/ATCC): 43%
Growth Percent (NCI-H322M): 86.96%
inhibition at 10 µM (NCI-H322M): 14%
inhibition at 10 µM (NCI-H226): 42%
Growth Percent (NCI-H226): 58.04%
Growth Percent (HOP-92): 73.37%
inhibition at 10 µM (HOP-92): 27%
inhibition at 10 µM (NCI-H522): 51%
Growth Percent (NCI-H522): 49.88%
